Assay results as given in patent publication US20020086278A1, “CHROMOGENIC MEDIA CONTAINING BLOOD OR HEMIN” (priority 1999, published 2002).
Read-outs that look alike come from different tables or passages of the source.

Experiments:
Assay type in all cases: cell-based
[1] = tested on: Aeromonas hydrophilia (aehy); experiment: Example 3: colony color on chromogenic TSA II with 5% sheep blood (chromogen in medium); conditions: for Colony Color: CO2, 21 h
[2] = tested on: Branhamella catarrhalis (brca); experiment: as above; conditions: for Colony Color: CO2, 21 h
Candida albicans (caal) = experiment: as above; conditions: for Colony Color: caal 10231, 24 h
[3] = tested on: Citrobacter freundii (cifr); experiment: as above; conditions: for Colony Color: CO2, 21 h
[4] = tested on: Entercoccus faecalis (enfa); experiment: as above
E. faecium (enfu) = experiment: as above; conditions: for Colony Color: enfu 49032, 21 h
[5] = tested on: E. coli (non-O157) (esco)
[6] = tested on: Klebsiella pneumoniae (klpn); experiment: Example 3: colony color on chromogenic TSA II with 5% sheep blood (chromogen in medium)
[7] = tested on: Pseudomonas aeruginosa (psae); experiment: as above; conditions: for Colony Color: CO2, 21 h
Salmonella spp. (sasp) = conditions: for Colony Color: CO2, 21 h
[8] = tested on: Serratia marcescens (sema); experiment: Example 3: colony color on chromogenic TSA II with 5% sheep blood (chromogen in medium)
[9] = tested on: Streptococcus agalactiae (stag); experiment: as above
[10] = tested on: Staphylococcus aureus (stau); experiment: as above
[11] = tested on: Staphylococcus Coag Neg (step); experiment: as above; conditions: for Colony Color: 21 h
S. milleri (stmi) = experiment: as above; conditions: for Colony Color: stmi 6249, 21 h
S. pneumoniae (stpn) = experiment: as above
S pyogenes (stpy) = experiment: as above; conditions: for Colony Color: 21 h
55 strains = experiment: Example 3: color, hemolytic activity and growth over all 55 strains; conditions: chromogenic TSA II
Description: Steers, E. et al., Antibiot.

cakr 34135 = experiment: Example 3: colony color on chromogenic TSA II with 5% sheep blood (chromogen in medium); conditions: CO2, 21 h
milu 9341 = experiment: as above; conditions: CO2, 21 h
[12] = chromogenic TSA II with 5% Sheep Blood, 0.1 g/l, 3 strains tested
[13] = chromogenic TSA II with 5% Sheep Blood, 0.1 g/l, 2 strains tested
[14] = chromogenic TSA II with 5% Sheep Blood, 0.1 g/l, 6 strains tested
[15] = chromogenic TSA II with 5% Sheep Blood, 0.1 g/l, 1 strain tested
[16] = chromogenic TSA II with 5% Sheep Blood, 0.1 g/l, 5 strains tested

Magenta-caprylate [M-Cap]
inactive: Activity (color) for most organisms (55 strains)
0: Colony Color ([1]; aehy 7965) | Colony Color ([1]; aehy 7966) | Colony Color ([1]; aehy 49847) | Colony Color (Summary) [1, 12] | Colony Color ([2]; brca 25238) | Colony Color ([2]; brca 25240) | Colony Color (Summary) [2, 13] | Colony Color (Candida albicans (caal); CO2) | Colony Color (Candida albicans (caal); air) | Colony Color (Summary) (Candida albicans (caal); [13]) | Colony Color (Summary) [3, 13] | Colony Color ([3]; cifr 8454) | Colony Color ([3]; cifr 33128) | Colony Color (Summary) [4, 14] | Colony Color ([4]; enfa 597, CO2, 21 h) | Colony Color ([4]; enfa 597, air, 21 h) | Colony Color ([4]; enfa 10741, CO2, 21 h) | Colony Color ([4]; enfa 10741, air, 21 h) | Colony Color ([4]; enfa 12953, CO2, 21 h) | Colony Color ([4]; enfa 12953, air, 21 h) | Colony Color ([4]; enfa 14506, CO2, 21 h) | Colony Color ([4]; enfa 14506, air, 21 h) | Colony Color ([4]; enfa 29212, CO2, 21 h) | Colony Color ([4]; enfa 29212, CO2, 24 h) | Colony Color ([4]; enfa 29212, air, 21 h) | Colony Color ([4]; enfa 29212, air, 24 h) | Colony Color (Summary) (E. faecium (enfu); [15]) | Colony Color (E. faecium (enfu); CO2) | Colony Color (E. faecium (enfu); air) | Colony Color (Summary) [5, 12] | Colony Color ([5]; esco 11775, CO2, 21 h) | Colony Color ([5]; esco 25922, CO2, 24 h) | Colony Color ([5]; esco 25922, air, 24 h) | Colony Color ([5]; esco 33605, CO2, 21 h) | Colony Color (Summary) [6, 12] | Colony Color ([6]; klpn 13883, CO2, 21 h) | Colony Color ([6]; klpn 33495, CO2, 24 h) | Colony Color ([6]; klpn 33495, air, 24 h) | Colony Color ([6]; klpn 33606, CO2, 21 h) | Colony Color (Summary) [7, 12] | Colony Color ([7]; psae 9027) | Colony Color ([7]; psae 15442) | Colony Color ([7]; psae 33607) | Colony Color (Summary) (Salmonella spp. (sasp); [13]) | Colony Color (Salmonella spp. (sasp); saty 19430) | Colony Color (Salmonella spp. (sasp); satym 14028) | Colony Color (Summary) [8, 15] | Colony Color ([8]; sema 13880, CO2, 21 h) | Colony Color (Summary) [9, 12] | Colony Color ([9]; stag 4768, CO2, 21 h) | Colony Color ([9]; stag 4768, air, 21 h) | Colony Color ([9]; stag 12386, CO2, 21 h) | Colony Color ([9]; stag 12386, CO2, 24 h) | Colony Color ([9]; stag 12386, air, 24 h) | Colony Color (Summary) [10, 16] | Colony Color ([10]; stau 1006, CO2, 21 h) | Colony Color ([10]; stau 1007, CO2, 21 h) | Colony Color ([10]; stau 1008, CO2, 21 h) | Colony Color ([10]; stau 1009, CO2, 21 h) | Colony Color ([10]; stau 25923, CO2, 24 h) | Colony Color ([10]; stau 25923, air, 24 h) | Colony Color (Summary) [11, 16] | Colony Color ([11]; step 12228, CO2) | Colony Color ([11]; step 12228, air) | Colony Color ([11]; step cdc1, CO2) | Colony Color ([11]; step cdc1, air) | Colony Color ([11]; step cdc2, CO2) | Colony Color ([11]; step cdc2, air) | Colony Color ([11]; step cdc3, CO2) | Colony Color ([11]; step cdc3, air) | Colony Color ([11]; step cdc4, CO2) | Colony Color ([11]; step cdc4, air) | Colony Color (Summary) (S. milleri (stmi); [13]) | Colony Color (S. milleri (stmi); CO2) | Colony Color (S. milleri (stmi); air) | Colony Color (Summary) (S. pneumoniae (stpn); [14]) | Colony Color (S. pneumoniae (stpn); stpn 1259, CO2, 21 h) | Colony Color (S. pneumoniae (stpn); stpn 1260, CO2, 21 h) | Colony Color (S. pneumoniae (stpn); stpn 1331, CO2, 21 h) | Colony Color (S. pneumoniae (stpn); stpn 1628, CO2, 21 h) | Colony Color (S. pneumoniae (stpn); stpn 6303, CO2, 24 h) | Colony Color (S. pneumoniae (stpn); stpn 6303, air, 24 h) | Colony Color (S. pneumoniae (stpn); stpn 6305, CO2, 24 h) | Colony Color (S. pneumoniae (stpn); stpn 6305, air, 24 h) | Colony Color (Summary) (S pyogenes (stpy); [14]) | Colony Color (S pyogenes (stpy); stpy 1027, CO2) | Colony Color (S pyogenes (stpy); stpy 1028, CO2) | Colony Color (S pyogenes (stpy); stpy 1029, CO2) | Colony Color (S pyogenes (stpy); stpy 1030, CO2) | Colony Color (S pyogenes (stpy); stpy 19615, CO2) | Colony Color (S pyogenes (stpy); stpy 19615, air) | Colony Color (S pyogenes (stpy); stpy 49117, CO2) | Colony Color (S pyogenes (stpy); stpy 49117, air) | Colony Color (S pyogenes (stpy); stpy 51339, CO2) | Colony Color (S pyogenes (stpy); stpy 51339, air) | Colony Color (cakr 34135) | Colony Color (milu 9341)
